Assay results: paper PMC11167047 (Cell Death Discovery, 2024)

Tests used:
Assay in all cases: kinome screen (33PanQinase)
Format in all cases: biochemical
FAK = target: T1, FAK (Homo sapiens, UniProt Q05397)
T1 construct: purchased Reaction Biology Europe GmbH (formerly ProQinase)
Protocol: (§1) The Kinome Screening was performed by Reaction Biology Europe GmbH (http://reactionbiology.com; Freiburg i. Br., Germany).

CAMK4 = target: T2, CAMK4 (Homo sapiens, UniProt Q16566)
T2 construct: purchased Reaction Biology Europe GmbH (formerly ProQinase)
T2 sequence (Q16566 1-473): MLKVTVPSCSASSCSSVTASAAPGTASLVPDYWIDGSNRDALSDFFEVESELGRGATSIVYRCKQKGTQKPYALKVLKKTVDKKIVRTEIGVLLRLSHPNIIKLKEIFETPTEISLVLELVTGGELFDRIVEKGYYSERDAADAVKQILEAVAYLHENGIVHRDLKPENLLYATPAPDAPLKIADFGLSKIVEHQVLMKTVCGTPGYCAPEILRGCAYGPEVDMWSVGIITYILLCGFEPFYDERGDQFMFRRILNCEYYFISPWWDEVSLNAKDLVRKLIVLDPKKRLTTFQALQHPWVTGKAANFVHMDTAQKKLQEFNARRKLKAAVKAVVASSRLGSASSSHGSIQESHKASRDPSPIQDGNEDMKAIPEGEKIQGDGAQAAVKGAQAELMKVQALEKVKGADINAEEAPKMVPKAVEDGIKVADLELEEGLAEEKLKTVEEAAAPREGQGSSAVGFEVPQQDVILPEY
Protocol: as §1

CAMK1D = target: T3, CAMK1D (Homo sapiens, UniProt Q8IU85)
T3 construct: purchased Reaction Biology Europe GmbH (formerly ProQinase)
T3 sequence (Q8IU85 whole entry): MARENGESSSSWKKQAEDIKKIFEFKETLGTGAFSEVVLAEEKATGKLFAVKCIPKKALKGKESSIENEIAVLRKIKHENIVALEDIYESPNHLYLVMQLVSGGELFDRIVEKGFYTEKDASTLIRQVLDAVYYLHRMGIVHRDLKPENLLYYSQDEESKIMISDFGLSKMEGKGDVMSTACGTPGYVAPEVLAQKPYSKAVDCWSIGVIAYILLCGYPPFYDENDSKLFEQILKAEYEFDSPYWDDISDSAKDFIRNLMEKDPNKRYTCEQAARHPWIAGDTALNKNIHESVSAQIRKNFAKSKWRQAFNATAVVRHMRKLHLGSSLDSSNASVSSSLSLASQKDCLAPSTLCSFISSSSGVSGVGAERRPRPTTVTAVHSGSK
Protocol: as §1

PAK4 = target: T4, PAK4 (Homo sapiens, UniProt O96013)
T4 construct: purchased Reaction Biology Europe GmbH (formerly ProQinase)
T4 sequence (O96013 whole entry): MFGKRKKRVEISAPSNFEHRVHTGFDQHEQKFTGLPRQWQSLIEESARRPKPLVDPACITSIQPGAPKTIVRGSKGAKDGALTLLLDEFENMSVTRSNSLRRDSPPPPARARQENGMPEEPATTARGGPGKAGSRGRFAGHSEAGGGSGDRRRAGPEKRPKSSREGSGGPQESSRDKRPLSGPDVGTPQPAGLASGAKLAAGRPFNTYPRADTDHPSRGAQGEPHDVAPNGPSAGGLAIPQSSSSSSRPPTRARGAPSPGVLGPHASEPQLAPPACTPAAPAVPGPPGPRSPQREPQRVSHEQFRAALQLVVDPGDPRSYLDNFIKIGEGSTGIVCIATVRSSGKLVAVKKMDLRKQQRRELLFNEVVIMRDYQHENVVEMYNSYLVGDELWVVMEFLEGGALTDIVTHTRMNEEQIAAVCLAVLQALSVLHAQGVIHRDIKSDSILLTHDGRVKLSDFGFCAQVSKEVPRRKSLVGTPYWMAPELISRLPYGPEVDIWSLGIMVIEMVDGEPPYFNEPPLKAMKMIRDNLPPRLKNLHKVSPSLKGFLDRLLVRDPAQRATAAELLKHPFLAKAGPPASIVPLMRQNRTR
Protocol: as §1

PHKG1 = target: T5, PHKG1 (Homo sapiens, UniProt Q16816)
T5 construct: purchased Reaction Biology Europe GmbH (formerly ProQinase)
T5 sequence (Q16816 whole entry): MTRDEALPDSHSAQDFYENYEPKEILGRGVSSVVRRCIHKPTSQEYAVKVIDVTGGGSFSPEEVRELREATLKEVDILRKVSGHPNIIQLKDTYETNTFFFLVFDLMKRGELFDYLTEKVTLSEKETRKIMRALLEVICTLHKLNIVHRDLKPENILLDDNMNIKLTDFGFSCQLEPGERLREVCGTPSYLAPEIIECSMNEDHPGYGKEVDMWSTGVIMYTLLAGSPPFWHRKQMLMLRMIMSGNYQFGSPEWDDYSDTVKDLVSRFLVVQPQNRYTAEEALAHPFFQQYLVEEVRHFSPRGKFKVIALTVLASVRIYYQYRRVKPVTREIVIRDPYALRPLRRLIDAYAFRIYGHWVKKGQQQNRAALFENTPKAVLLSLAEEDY
Protocol: as §1

GRK2 = target: T6, GRK2 (Homo sapiens, UniProt P25098)
T6 construct: purchased Reaction Biology Europe GmbH (formerly ProQinase)
T6 sequence (P25098 1-689): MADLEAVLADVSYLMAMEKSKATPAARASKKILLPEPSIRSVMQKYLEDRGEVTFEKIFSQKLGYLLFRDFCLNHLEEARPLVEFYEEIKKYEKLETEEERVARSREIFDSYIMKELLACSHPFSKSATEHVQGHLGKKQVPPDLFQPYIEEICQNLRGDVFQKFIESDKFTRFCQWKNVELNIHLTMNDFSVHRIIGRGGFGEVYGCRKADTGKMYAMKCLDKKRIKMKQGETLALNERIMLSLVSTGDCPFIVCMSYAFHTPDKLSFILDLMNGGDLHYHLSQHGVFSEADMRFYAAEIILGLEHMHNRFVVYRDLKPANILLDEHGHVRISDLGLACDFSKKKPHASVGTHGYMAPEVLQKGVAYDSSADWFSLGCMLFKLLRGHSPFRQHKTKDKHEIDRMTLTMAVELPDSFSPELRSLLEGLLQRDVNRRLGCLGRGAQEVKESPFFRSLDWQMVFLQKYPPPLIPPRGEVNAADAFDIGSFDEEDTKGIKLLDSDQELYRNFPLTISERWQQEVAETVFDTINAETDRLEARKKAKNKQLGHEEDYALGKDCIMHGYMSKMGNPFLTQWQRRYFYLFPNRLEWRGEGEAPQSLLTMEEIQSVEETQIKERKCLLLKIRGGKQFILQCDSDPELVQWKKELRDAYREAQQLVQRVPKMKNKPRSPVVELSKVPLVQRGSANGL
Protocol: as §1

GRK3 = target: T7, GRK3 (Homo sapiens, UniProt P35626)
T7 construct: purchased Reaction Biology Europe GmbH (formerly ProQinase)
T7 sequence (P35626 1-688): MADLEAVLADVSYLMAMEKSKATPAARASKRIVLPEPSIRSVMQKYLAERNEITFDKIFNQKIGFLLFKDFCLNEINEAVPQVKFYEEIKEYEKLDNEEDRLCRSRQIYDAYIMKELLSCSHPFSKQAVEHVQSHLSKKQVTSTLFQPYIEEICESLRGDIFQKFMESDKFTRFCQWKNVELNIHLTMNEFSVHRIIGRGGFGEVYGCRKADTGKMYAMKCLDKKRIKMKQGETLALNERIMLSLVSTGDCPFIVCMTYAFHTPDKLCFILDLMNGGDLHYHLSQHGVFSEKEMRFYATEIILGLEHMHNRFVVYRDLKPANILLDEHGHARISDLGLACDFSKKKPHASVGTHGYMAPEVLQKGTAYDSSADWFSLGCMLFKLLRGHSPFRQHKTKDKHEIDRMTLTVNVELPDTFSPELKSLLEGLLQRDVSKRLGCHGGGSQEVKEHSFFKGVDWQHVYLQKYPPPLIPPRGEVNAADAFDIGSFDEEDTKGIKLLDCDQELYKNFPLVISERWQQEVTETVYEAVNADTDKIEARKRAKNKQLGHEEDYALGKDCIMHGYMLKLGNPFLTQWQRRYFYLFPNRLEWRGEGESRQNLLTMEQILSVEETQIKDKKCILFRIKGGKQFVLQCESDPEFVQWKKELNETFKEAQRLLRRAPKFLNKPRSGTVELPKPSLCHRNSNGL
Protocol: as §1

ERK5 = target: T8, ERK5 (Homo sapiens, UniProt Q13164)
T8 construct: purchased Reaction Biology Europe GmbH (formerly ProQinase)
T8 sequence (Q13164 whole entry): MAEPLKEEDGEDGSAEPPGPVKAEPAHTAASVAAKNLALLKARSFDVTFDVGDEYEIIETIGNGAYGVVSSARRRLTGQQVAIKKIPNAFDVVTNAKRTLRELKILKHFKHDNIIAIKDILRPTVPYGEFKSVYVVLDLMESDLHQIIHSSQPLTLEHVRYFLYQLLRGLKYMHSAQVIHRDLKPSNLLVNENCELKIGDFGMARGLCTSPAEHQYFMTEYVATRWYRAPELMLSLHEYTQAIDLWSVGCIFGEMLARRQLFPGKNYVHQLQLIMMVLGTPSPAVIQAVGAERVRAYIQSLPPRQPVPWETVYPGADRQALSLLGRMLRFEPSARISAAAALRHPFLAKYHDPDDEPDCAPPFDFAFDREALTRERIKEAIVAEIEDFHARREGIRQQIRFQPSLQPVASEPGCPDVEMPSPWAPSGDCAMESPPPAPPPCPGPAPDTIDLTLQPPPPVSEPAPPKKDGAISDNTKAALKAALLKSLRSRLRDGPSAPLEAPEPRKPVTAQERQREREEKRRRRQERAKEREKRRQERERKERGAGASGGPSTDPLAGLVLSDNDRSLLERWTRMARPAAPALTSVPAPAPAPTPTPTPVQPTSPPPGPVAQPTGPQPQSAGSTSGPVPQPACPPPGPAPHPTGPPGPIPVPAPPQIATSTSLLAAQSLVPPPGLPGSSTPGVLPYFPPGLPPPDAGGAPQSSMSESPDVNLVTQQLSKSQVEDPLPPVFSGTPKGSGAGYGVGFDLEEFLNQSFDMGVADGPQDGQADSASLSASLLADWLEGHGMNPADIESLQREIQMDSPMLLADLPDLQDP
Protocol: as §1

T1 sequence (Q05397 whole entry): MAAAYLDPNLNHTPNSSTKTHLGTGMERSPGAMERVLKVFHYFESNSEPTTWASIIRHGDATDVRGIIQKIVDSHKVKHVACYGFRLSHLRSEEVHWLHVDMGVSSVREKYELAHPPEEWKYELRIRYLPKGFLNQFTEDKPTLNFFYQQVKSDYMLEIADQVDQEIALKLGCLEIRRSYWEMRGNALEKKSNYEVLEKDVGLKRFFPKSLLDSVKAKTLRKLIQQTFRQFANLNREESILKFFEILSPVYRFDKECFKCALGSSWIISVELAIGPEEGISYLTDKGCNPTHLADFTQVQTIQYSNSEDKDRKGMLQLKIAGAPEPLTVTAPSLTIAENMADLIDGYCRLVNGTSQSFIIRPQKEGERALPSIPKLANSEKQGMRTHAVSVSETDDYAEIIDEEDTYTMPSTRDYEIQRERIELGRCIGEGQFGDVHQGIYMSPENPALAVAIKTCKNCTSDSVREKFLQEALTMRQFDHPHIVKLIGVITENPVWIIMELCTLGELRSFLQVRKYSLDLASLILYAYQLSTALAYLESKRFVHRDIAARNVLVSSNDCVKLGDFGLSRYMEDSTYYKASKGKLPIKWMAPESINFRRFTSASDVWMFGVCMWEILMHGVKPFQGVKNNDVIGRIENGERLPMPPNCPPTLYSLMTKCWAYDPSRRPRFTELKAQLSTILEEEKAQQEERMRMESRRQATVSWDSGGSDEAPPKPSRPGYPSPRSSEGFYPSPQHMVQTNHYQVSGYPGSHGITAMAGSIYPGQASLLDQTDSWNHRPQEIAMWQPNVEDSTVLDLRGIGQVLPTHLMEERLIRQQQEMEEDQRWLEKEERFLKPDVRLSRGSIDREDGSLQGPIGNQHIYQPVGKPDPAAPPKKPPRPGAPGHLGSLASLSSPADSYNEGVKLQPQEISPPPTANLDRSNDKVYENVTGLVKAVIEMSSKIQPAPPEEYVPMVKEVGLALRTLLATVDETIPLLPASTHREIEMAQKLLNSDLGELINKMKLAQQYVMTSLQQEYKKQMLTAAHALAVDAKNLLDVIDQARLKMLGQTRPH

SMILES	residual kinase activity (FAK; 0.3 µM)	residual kinase activity (CAMK4; 0.3 µM)	residual kinase activity (CAMK1D; 0.3 µM)	residual kinase activity (PAK4; 0.3 µM)	residual kinase activity (PHKG1; 0.3 µM)	residual kinase activity (GRK2; 0.3 µM)	residual kinase activity (GRK3; 0.3 µM)	residual kinase activity (ERK5; 0.3 µM)	also measured
COc1ccnc2[nH]cc(-c3cc(N)nc(N)c3)c12 [meriolin 16]	89 % of control	92 % of control	81 % of control	74 % of control	39 % of control	106 % of control	107 % of control	22 % of control	residual kinase activity (FAK; 0.03 µM): 102 % of control; residual kinase activity (CAMK4; 0.03 µM): 96 % of control; residual kinase activity (CAMK1D; 0.03 µM): 102 % of control; residual kinase activity (PAK4; 0.03 µM): 86 % of control; residual kinase activity (PHKG1; 0.03 µM): 85 % of control; residual kinase activity (GRK2; 0.03 µM): 96 % of control; residual kinase activity (GRK3; 0.03 µM): 111 % of control; residual kinase activity (ERK5; 0.03 µM): 28 % of control
c1ccc(CNc2cc(-c3c[nH]c4ncccc34)ccn2)cc1 [meriolin 36]	85 % of control	92 % of control	70 % of control	56 % of control	16 % of control	99 % of control	98 % of control	13 % of control	residual kinase activity (FAK; 3 µM): 60 % of control; residual kinase activity (CAMK4; 3 µM): 73 % of control; residual kinase activity (CAMK1D; 3 µM): 38 % of control; residual kinase activity (PAK4; 3 µM): 16 % of control; residual kinase activity (PHKG1; 3 µM): 2 % of control; residual kinase activity (GRK2; 3 µM): 51 % of control; residual kinase activity (GRK3; 3 µM): 74 % of control; residual kinase activity (ERK5; 3 µM): 8 % of control
